According to article PMC10436550, “Subacute toxicity evaluations of LPM3480392 in rats, a full µ-opioid receptor biased agonist” (Frontiers in Pharmacology, 2023):

Tested on: Sprague Dawley (SD) rats
Experiment: Hematology, 4-week subacute toxicity study
[1] = female rats, 0.6 mg/kg/day, End of dosing phase
[2] = female rats, 0.6 mg/kg/day, End of recovery phase
[3] = female rats, 1.2 mg/kg/day, End of dosing phase
[4] = female rats, 1.2 mg/kg/day, End of recovery phase
[5] = female rats, 2.4 mg/kg/day, End of dosing phase
[6] = female rats, 2.4 mg/kg/day, End of recovery phase
[7] = female rats, end of dosing phase
[8] = male rats, 0.6 mg/kg/day, End of dosing phase
[9] = male rats, 0.6 mg/kg/day, End of recovery phase
[10] = male rats, 1.2 mg/kg/day, End of dosing phase
[11] = male rats, 1.2 mg/kg/day, End of recovery phase
[12] = male rats, 2.4 mg/kg/day, End of dosing phase
[13] = male rats, 2.4 mg/kg/day, End of recovery phase

In the case of `Fc1ccc([C@]2(CCNCc3cccc(Cl)c3)CCO[C@]3(CCOC3)C2)nc1` [LPM3480392], the LYM [1] is reported as 4.17 ± 0.90 10^9/L, the LYM% [1] is reported as 86.1 ± 5.8% and the MCV [1] is reported as 58.1 ± 1.5 fL. For the same compound, the MONO [1] was 0.05 ± 0.02 10^9/L, the MONO% [1] was 1.1 ± 0.4 % and the NEU [1] was 0.51 ± 0.26 10^9/L. For the same compound, the NEU% [1] was 10.6 ± 5.5%, the PLT [1] was 1072 ± 103 10^9/L and the RBC [1] was 6.90 ± 0.35 10^12/L. The WBC [1] was 4.84 ± 0.93 10^9/L, the LYM [2] was 3.46 ± 0.53 10^9/L and the LYM% [2] was 85.8 ± 4.4 %. The MCV [2] was 56.4 ± 1.2 fL, the MONO [2] was 0.04 ± 0.02 10^9/L and the MONO% [2] was 1.1 ± 0.4 %. For the same compound, the NEU [2] was 0.42 ± 0.17^* 10^9/L, the NEU% [2] was 10.6 ± 4.8 % and the PLT [2] was 975 ± 144 10^9/L. The RBC [2] was 7.56 ± 0.22 10^12/L, the WBC [2] was 4.03 ± 0.57 10^9/L and the LYM [3] was 4.21 ± 1.29 10^9/L. The LYM% [3] was 85.7 ± 7.2%, the MCV [3] was 58.7 ± 2.1 fL and the MONO [3] was 0.05 ± 0.02 10^9/L. The MONO% [3] was 0.9 ± 0.3 %, the NEU [3] was 0.50 ± 0.24 10^9/L and the NEU% [3] was 11.1 ± 7.2%. The PLT [3] was 1064 ± 104 10^9/L, the RBC [3] was 6.59 ± 0.26^* 10^12/L and the WBC [3] was 4.87 ± 1.28 10^9/L. The LYM [4] was 2.95 ± 0.75 10^9/L, the LYM% [4] was 85.9 ± 3.0 % and the MCV [4] was 56.6 ± 1.8 fL. The MONO [4] was 0.04 ± 0.01 10^9/L, the MONO% [4] was 1.2 ± 0.4 % and the NEU [4] was 0.35 ± 0.08^* 10^9/L. The NEU% [4] was 10.6 ± 2.5 %, the PLT [4] was 975 ± 42 10^9/L and the RBC [4] was 7.44 ± 0.33 10^12/L. For the same compound, the WBC [4] was 3.42 ± 0.78 10^9/L, the LYM [5] was 2.53 ± 0.59 10^9/L and the LYM% [5] was 81.1 ± 5.3%. The MCV [5] was 58.1 ± 1.9 fL, the MONO [5] was 0.03 ± 0.02^* 10^9/L and the MONO% [5] was 1.0 ± 0.3 %. The NEU [5] was 0.51 ± 0.29 10^9/L, the NEU% [5] was 15.4 ± 4.6% and the PLT [5] was 946 ± 108^* 10^9/L. For the same compound, the RBC [5] was 6.57 ± 0.30^* 10^12/L, the WBC [5] was 3.15 ± 0.87 10^9/L and the LYM [6] was 3.02 ± 0.62 10^9/L. For the same compound, the LYM% [6] was 83.7 ± 3.4 %, the MCV [6] was 56.8 ± 0.8 fL and the MONO [6] was 0.04 ± 0.01 10^9/L. For the same compound, the MONO% [6] was 1.2 ± 0.3 %, the NEU [6] was 0.46 ± 0.09^* 10^9/L and the NEU% [6] was 12.8 ± 2.8 %. For the same compound, the PLT [6] was 998 ± 45 10^9/L, the RBC [6] was 7.45 ± 0.17 10^12/L and the WBC [6] was 3.60 ± 0.67 10^9/L. The “Magnitude of change of MCV” value [7] was “less than 5%”, the “Magnitude of change of PLT” value [7] was less than 15% and the “Magnitude of change of RBC” value [7] was less than 6%. For the same compound, the EOS [8] was 0.042 ± 0.013 10^9/L, the EOS% [8] was 0.90 ± 0.42% and the MONO [8] was 0.07 ± 0.03 10^9/L. For the same compound, the MONO% [8] was 1.3 ± 0.6%, the RBC [8] was 7.05 ± 0.32 10^12/L and the RET [8] was 0.300 ± 0.051 10^12/L. The RET % [8] was 4.26 ± 0.77%, the WBC [8] was 5.19 ± 1.38 10^9/L and the EOS [9] was 0.046 ± 0.018 10^9/L. The EOS% [9] was 1.14 ± 0.38%, the MONO [9] was 0.04 ± 0.02 10^9/L and the MONO% [9] was 1.0 ± 0.4%. For the same compound, the RBC [9] was 7.96 ± 0.24 10^12/L, the RET [9] was 0.144 ± 0.021 10^12/L and the RET % [9] was 1.81 ± 0.30%. For the same compound, the WBC [9] was 4.04 ± 1.12 10^9/L, the EOS [10] was 0.035 ± 0.016^* 10^9/L and the EOS% [10] was 0.77 ± 0.39%. The MONO [10] was 0.05 ± 0.02 10^9/L, the MONO% [10] was 1.1 ± 0.3% and the RBC [10] was 7.06 ± 0.32 10^12/L. The RET [10] was 0.331 ± 0.062^* 10^12/L, the RET % [10] was 4.70 ± 0.92 % and the WBC [10] was 4.56 ± 0.55 10^9/L. The EOS [11] was 0.042 ± 0.013 10^9/L, the EOS% [11] was 0.90 ± 0.12% and the MONO [11] was 0.04 ± 0.02 10^9/L. The MONO% [11] was 0.9 ± 0.3%, the RBC [11] was 7.99 ± 0.29 10^12/L and the RET [11] was 0.132 ± 0.017 10^12/L. For the same compound, the RET % [11] was 1.65 ± 0.21%, the WBC [11] was 4.50 ± 1.16 10^9/L and the EOS [12] was 0.022 ± 0.014^* 10^9/L. The EOS% [12] was 0.49 ± 0.29 %, the MONO [12] was 0.04 ± 0.02^* 10^9/L and the MONO% [12] was 0.9 ± 0.4%. The RBC [12] was 7.05 ± 0.37 10^12/L, the RET [12] was 0.387 ± 0.053^* 10^12/L and the RET % [12] was 5.51 ± 0.83 %. For the same compound, the WBC [12] was 4.24 ± 0.98 10^9/L, the EOS [13] was 0.032 ± 0.011 10^9/L and the EOS% [13] was 0.66 ± 0.21%. The MONO [13] was 0.05 ± 0.02 10^9/L, the MONO% [13] was 1.1 ± 0.3% and the RBC [13] was 7.62 ± 0.37 10^12/L. The RET [13] was 0.157 ± 0.008 10^12/L, the RET % [13] was 2.07 ± 0.11 % and the WBC [13] was 5.02 ± 0.40 10^9/L.
